Experimental data published in PubChem BioAssay AID256 (DTP/NCI, 2004).
Inconclusive results and toxic doses are left out.

System: CD2F1 mice, L1210 leukemia ip, survival T/C
Test: NCI In Vivo Anticancer Drug Screen. Data for tumor model L1210 Leukemia (intraperitoneal) in CD2F1 (CDF1) mice
Details: endpoint: mean survival time, higher = longer survival
In short: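 Mice carrying a transplanted tumor received test compound or vehicle alone. The value is the measurement in the treated group divided by that in the vehicle-treated control group.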

[1] = dose: 100.0 mg/kg/injection, schedule: Q04DX003 (ip), vehicle: saline with Tween-80
[2] = dose: 200.0 mg/kg/injection, schedule: Q04DX003 (ip), vehicle: saline with Tween-80
[3] = dose: 400.0 mg/kg/injection, schedule: Q04DX003 (ip), vehicle: saline with Tween-80
[4] = dose: 100.0 mg/kg/injection, schedule: Q04DX003 (ip), vehicle: saline
[5] = dose: 100.0 mg/kg/injection, schedule: Q01DX009 (ip), vehicle: saline with Tween-80
[6] = dose: 200.0 mg/kg/injection, schedule: Q01DX009 (ip), vehicle: saline with Tween-80
[7] = dose: 400.0 mg/kg/injection, schedule: Q01DX009 (ip), vehicle: saline with Tween-80
[8] = dose: 50.0 mg/kg/injection, schedule: Q01DX009 (ip), vehicle: saline
[9] = dose: 100.0 mg/kg/injection, schedule: Q01DX009 (ip), vehicle: saline

CN(Cc1ccc(Cl)cc1)N=Nc1ccc(C(=O)O)cc1
T/C (dose: 7.9 mg/kg/injection, schedule: Q01DX009 (ip), vehicle: other): 94 % of control
T/C (dose: 15.7 mg/kg/injection, schedule: Q01DX009 (ip), vehicle: other): 94 % of control
T/C (dose: 31.3 mg/kg/injection, schedule: Q01DX009 (ip), vehicle: other): 105 % of control
T/C (dose: 62.5 mg/kg/injection, schedule: Q01DX009 (ip), vehicle: other): 90 % of control
T/C (dose: 100.0 mg/kg/injection, schedule: Q01DX009 (ip), vehicle: other): 101 % of control
T/C (dose: 125.0 mg/kg/injection, schedule: Q01DX009 (ip), vehicle: other): 97 % of control
T/C (dose: 200.0 mg/kg/injection, schedule: Q01DX009 (ip), vehicle: other): 93 % of control

CCOC(=O)c1c(C)[nH]c(C(=O)C(N=O)C(=O)OCC)c1C (configuration not stated)
T/C [1]: 101 % of control
T/C [2]: 97 % of control
T/C [3]: 97 % of control

CCOC(=O)N1CC2CCC(C1)N2C
T/C [4]: 93 % of control

CN1CCCC1CN1c2ccccc2Sc2ccccc21 (configuration not stated)
T/C [4]: 102 % of control

C/C(=N/Nc1ccc([N+](=O)[O-])cc1[N+](=O)[O-])c1ccccc1
T/C [5]: 91 % of control
T/C [6]: 97 % of control
T/C [7]: 100 % of control

NC(=O)c1nc(C2OC(CO)C(O)C2O)no1 (configuration not stated)
T/C (dose: 12.5 mg/kg/injection, schedule: Q01DX005 (ip), vehicle: water): 98 % of control
T/C (dose: 25.0 mg/kg/injection, schedule: Q01DX005 (ip), vehicle: water): 98 % of control
T/C (dose: 50.0 mg/kg/injection, schedule: Q01DX005 (ip), vehicle: water): 108 % of control
T/C (dose: 100.0 mg/kg/injection, schedule: Q01DX005 (ip), vehicle: water): 98 % of control
T/C (dose: 200.0 mg/kg/injection, schedule: Q01DX005 (ip), vehicle: water): 98 % of control

CC([NH-])CC[NH-].O=C(O)C(=O)O.[Pt+2] (configuration not stated)
T/C (dose: 3.12 mg/kg/injection, schedule: Q04DX003 (ip), vehicle: saline with Tween-80): 152 % of control
T/C (dose: 6.25 mg/kg/injection, schedule: Q04DX003 (ip), vehicle: saline with Tween-80): 235 % of control
T/C (dose: 12.5 mg/kg/injection, schedule: Q04DX003 (ip), vehicle: saline with Tween-80): 265 % of control

O=[N+]([O-])c1ccc2ccccc2c1I
T/C [5]: 92 % of control
T/C [1]: 87 % of control
T/C [6]: 98 % of control
T/C [2]: 93 % of control
T/C [7]: 90 % of control
T/C [3]: 92 % of control

CC(C)CC(=O)Nc1ccccc1
T/C (dose: 100.0 mg/kg/injection, schedule: Q01DX009 (ip), vehicle: saline sonified): 101 % of control
T/C (dose: 200.0 mg/kg/injection, schedule: Q01DX009 (ip), vehicle: saline sonified): 102 % of control
T/C (dose: 400.0 mg/kg/injection, schedule: Q01DX009 (ip), vehicle: saline sonified): 93 % of control

CCC(C)CC(O)CC1=CCCCC1 (configuration not stated)
T/C [1]: 91 % of control
T/C [2]: 95 % of control
T/C [3]: 106 % of control

CCCCCCCCCCCCCCC(=O)O.[Pb]
T/C (dose: 75.0 mg/kg/injection, schedule: Q01DX001 (ip), vehicle: other): 103 % of control
T/C (dose: 150.0 mg/kg/injection, schedule: Q01DX001 (ip), vehicle: other): 103 % of control
T/C (dose: 300.0 mg/kg/injection, schedule: Q01DX001 (ip), vehicle: other): 98 % of control

COc1c2c(cc3c1C(O)N(C)CC3)OCO2 (configuration not stated)
T/C (dose: 75.0 mg/kg/injection, schedule: Q01DX001 (ip), vehicle: saline): 100 % of control
T/C (dose: 150.0 mg/kg/injection, schedule: Q01DX001 (ip), vehicle: saline): 110 % of control

CC12CCC(=O)C=C1CCC1C2CCC2(C)C(C(=O)Cn3c(=O)cc[nH]c3=O)CCC12 (configuration not stated)
T/C (dose: 12.5 mg/kg/injection, schedule: Q04DX003 (ip), vehicle: Klucel (hydroxypropylcellulose) (HPC)): 91 % of control
T/C (dose: 25.0 mg/kg/injection, schedule: Q04DX003 (ip), vehicle: Klucel (hydroxypropylcellulose) (HPC)): 97 % of control
T/C (dose: 50.0 mg/kg/injection, schedule: Q04DX003 (ip), vehicle: Klucel (hydroxypropylcellulose) (HPC)): 91 % of control
T/C (dose: 100.0 mg/kg/injection, schedule: Q04DX003 (ip), vehicle: Klucel (hydroxypropylcellulose) (HPC)): 95 % of control
T/C (dose: 200.0 mg/kg/injection, schedule: Q04DX003 (ip), vehicle: Klucel (hydroxypropylcellulose) (HPC)): 103 % of control

O=C(CCCCCNC(=O)OCc1ccccc1)Oc1ccc([N+](=O)[O-])cc1
T/C [1]: 101 % of control
T/C [2]: 96 % of control
T/C [3]: 94 % of control

CCCCOC(=O)C1C2CCC(O2)C1C(N)=O (configuration not stated)
T/C (dose: 25.0 mg/kg/injection, schedule: Q04DX002 (ip), vehicle: saline with Tween-80): 95 % of control
T/C (dose: 50.0 mg/kg/injection, schedule: Q04DX002 (ip), vehicle: saline with Tween-80): 101 % of control

CC(=O)OCC1OC(n2ncc3c(N4CC4)ncnc32)C(OC(C)=O)C1OC(C)=O (configuration not stated)
T/C (dose: 25.0 mg/kg/injection, schedule: Q01DX005 (ip), vehicle: distilled water + Tween-80): 97 % of control
T/C (dose: 50.0 mg/kg/injection, schedule: Q01DX005 (ip), vehicle: distilled water + Tween-80): 99 % of control
T/C (dose: 100.0 mg/kg/injection, schedule: Q01DX005 (ip), vehicle: distilled water + Tween-80): 101 % of control
T/C (dose: 200.0 mg/kg/injection, schedule: Q01DX005 (ip), vehicle: distilled water + Tween-80): 100 % of control
T/C (dose: 400.0 mg/kg/injection, schedule: Q01DX005 (ip), vehicle: distilled water + Tween-80): 97 % of control

c1ccc(C(c2ccccc2)c2ccccc2)cc1
T/C [1]: 97 % of control
T/C [2]: 98 % of control

C[NH-].C[NH-].C[NH-].C[NH-].O=C(O)c1cc(C(=O)O)c(C(=O)O)cc1C(=O)O.[Pt+2].[Pt+2]
T/C (dose: 3.12 mg/kg/injection, schedule: Q04DX003 (ip), vehicle: distilled water + Tween-80): 100 % of control
T/C (dose: 6.25 mg/kg/injection, schedule: Q04DX003 (ip), vehicle: distilled water + Tween-80): 102 % of control
T/C (dose: 12.5 mg/kg/injection, schedule: Q04DX003 (ip), vehicle: distilled water + Tween-80): 103 % of control
T/C (dose: 25.0 mg/kg/injection, schedule: Q04DX003 (ip), vehicle: distilled water + Tween-80): 105 % of control
T/C (dose: 50.0 mg/kg/injection, schedule: Q04DX003 (ip), vehicle: distilled water + Tween-80): 102 % of control
T/C (dose: 100.0 mg/kg/injection, schedule: Q04DX003 (ip), vehicle: distilled water + Tween-80): 103 % of control
T/C (dose: 200.0 mg/kg/injection, schedule: Q04DX003 (ip), vehicle: distilled water + Tween-80): 107 % of control

CCCc1c(C)[nH]c2ccc(C)cc12
T/C [8]: 102 % of control
T/C [9]: 104 % of control
T/C [1]: 101 % of control
T/C [2]: 86 % of control

CCOC/C=C\C1=CCCCC1
T/C (dose: 50.0 mg/kg/injection, schedule: Q01DX009 (ip), vehicle: saline with Tween-80): 97 % of control
T/C [5]: 114 % of control
T/C [6]: 105 % of control

C=CCCCCCCCCC(=O)NCCCC(OCC)OCC
T/C [5]: 100 % of control
T/C [6]: 100 % of control
T/C [7]: 98 % of control

CC(=O)N1CCCC2=C1CCCCCC2
T/C (dose: 12.5 mg/kg/injection, schedule: Q04DX003 (ip), vehicle: saline): 101 % of control
T/C (dose: 25.0 mg/kg/injection, schedule: Q01DX009 (ip), vehicle: saline): 110 % of control
T/C (dose: 25.0 mg/kg/injection, schedule: Q04DX003 (ip), vehicle: saline): 88 % of control
T/C [8]: 115 % of control
T/C (dose: 50.0 mg/kg/injection, schedule: Q04DX003 (ip), vehicle: saline): 88 % of control
T/C (dose: 100.0 mg/kg/injection, schedule: Q01DX001 (ip), vehicle: saline): 96 % of control
T/C [9]: 113 % of control
T/C (dose: 100.0 mg/kg/injection, schedule: Q04DX002 (ip), vehicle: saline): 102 % of control
T/C [4]: 90 % of control
T/C (dose: 200.0 mg/kg/injection, schedule: Q01DX001 (ip), vehicle: saline): 102 % of control
T/C (dose: 200.0 mg/kg/injection, schedule: Q01DX009 (ip), vehicle: saline): 110 % of control
T/C (dose: 200.0 mg/kg/injection, schedule: Q04DX002 (ip), vehicle: saline): 98 % of control
T/C (dose: 200.0 mg/kg/injection, schedule: Q04DX003 (ip), vehicle: saline): 95 % of control
T/C (dose: 400.0 mg/kg/injection, schedule: Q01DX001 (ip), vehicle: saline): 93 % of control
T/C (dose: 400.0 mg/kg/injection, schedule: Q04DX002 (ip), vehicle: saline): 95 % of control
T/C (dose: 400.0 mg/kg/injection, schedule: Q04DX003 (ip), vehicle: saline): 91 % of control
T/C (dose: 500.0 mg/kg/injection, schedule: Q04DX002 (ip), vehicle: saline): 98 % of control
T/C (dose: 600.0 mg/kg/injection, schedule: Q01DX001 (ip), vehicle: saline): 93 % of control
